In ChEMBL document CHEMBL1909046, “DrugMatrix in vitro pharmacology data” one finds IC50 and Ki data, which are given here for 21 compounds.

In assay [1] the target is Aldo-keto reductase family 1 member B1 (Rattus norvegicus, UniProt P07943). The assay is classed as tissue-based, Lens of camera-type eye.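 Further: inhibition of aldose reductase enzyme activity, measured with DL-glyceraldehyde as the substrate; in other assays of this panel Not Active means under 50% inhibition at 10 µM.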
For the next assay, the target named is T1, D(4) dopamine receptor (Homo sapiens, UniProt P21917).
T1 sequence (P21917 whole entry): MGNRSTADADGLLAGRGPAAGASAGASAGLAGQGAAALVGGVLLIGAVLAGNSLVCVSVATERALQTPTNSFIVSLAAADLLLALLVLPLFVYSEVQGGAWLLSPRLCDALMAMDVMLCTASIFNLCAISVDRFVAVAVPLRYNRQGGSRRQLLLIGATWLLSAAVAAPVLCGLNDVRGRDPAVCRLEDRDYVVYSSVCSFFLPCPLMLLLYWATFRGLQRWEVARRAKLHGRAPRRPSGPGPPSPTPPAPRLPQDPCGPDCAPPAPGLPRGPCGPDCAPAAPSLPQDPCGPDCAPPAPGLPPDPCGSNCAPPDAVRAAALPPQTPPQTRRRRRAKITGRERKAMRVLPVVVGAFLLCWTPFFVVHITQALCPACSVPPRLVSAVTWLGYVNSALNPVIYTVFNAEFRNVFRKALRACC
Kind of assay: DRUGMATRIX: Dopamine D4.2 radioligand binding (ligand: [3H] Spiperone). The assay is classed as cell membranes, CHO-K1, Membrane. The note with it: cho-k1; Not Active = under 50% inhibition at 10 µM.

Another assay concerns the target T2, Substance-K receptor (Homo sapiens, UniProt P21452). Further: in other assays of this panel Not Active means under 50% inhibition at 10 µM.
T2 sequence (P21452 whole entry): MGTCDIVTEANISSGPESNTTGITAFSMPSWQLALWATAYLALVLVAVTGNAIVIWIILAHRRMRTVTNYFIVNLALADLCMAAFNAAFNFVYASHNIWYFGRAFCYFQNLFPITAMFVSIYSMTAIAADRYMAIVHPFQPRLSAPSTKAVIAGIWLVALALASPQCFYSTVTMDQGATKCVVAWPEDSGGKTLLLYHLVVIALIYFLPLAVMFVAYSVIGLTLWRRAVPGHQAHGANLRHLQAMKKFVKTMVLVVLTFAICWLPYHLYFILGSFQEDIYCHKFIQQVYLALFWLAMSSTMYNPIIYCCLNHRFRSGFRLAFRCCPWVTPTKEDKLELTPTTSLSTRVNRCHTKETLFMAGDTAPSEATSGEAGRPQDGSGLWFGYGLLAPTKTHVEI
The assay is classed as cell membranes, CHO, Membrane.

The next assay has as its target T3, Thromboxane-A synthase (Homo sapiens, UniProt P24557).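 Further: enzyme inhibition assay with PGH2 supplied as substrate; in other assays of this panel Not Active means under 50% inhibition at 10 µM.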
T3 sequence (P24557 whole entry): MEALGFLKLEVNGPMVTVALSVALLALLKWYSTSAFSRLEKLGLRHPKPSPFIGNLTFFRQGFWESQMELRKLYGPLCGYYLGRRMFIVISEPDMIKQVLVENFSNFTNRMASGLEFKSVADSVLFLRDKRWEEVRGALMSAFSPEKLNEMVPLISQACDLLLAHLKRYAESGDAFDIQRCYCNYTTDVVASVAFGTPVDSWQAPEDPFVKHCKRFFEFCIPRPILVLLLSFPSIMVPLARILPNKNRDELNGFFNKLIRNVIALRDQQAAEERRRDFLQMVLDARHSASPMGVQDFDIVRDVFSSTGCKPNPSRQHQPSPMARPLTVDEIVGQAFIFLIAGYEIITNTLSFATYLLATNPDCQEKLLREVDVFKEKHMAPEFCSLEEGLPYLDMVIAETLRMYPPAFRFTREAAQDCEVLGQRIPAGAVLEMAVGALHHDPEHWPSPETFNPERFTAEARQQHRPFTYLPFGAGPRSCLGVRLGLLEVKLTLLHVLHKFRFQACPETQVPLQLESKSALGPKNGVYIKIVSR
Kind of assay: biochemical. It counts as tissue-based, Platelet. The note with it: platelet.

Assay [2] has as its target Matrix metalloproteinase-9 (Homo sapiens, UniProt P14780). The assay is described as follows: biochemical. The assay is classed as cell-based.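 Further: inhibition of isolated MMP-9 enzyme activity toward a synthetic peptide substrate, from the DrugMatrix protease screening panel; in other assays of this panel Not Active means under 50% inhibition at 10 µM.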
Assay [3] addresses T4, Muscarinic acetylcholine receptor M5 (Homo sapiens, UniProt P08912).
T4 sequence (P08912 whole entry): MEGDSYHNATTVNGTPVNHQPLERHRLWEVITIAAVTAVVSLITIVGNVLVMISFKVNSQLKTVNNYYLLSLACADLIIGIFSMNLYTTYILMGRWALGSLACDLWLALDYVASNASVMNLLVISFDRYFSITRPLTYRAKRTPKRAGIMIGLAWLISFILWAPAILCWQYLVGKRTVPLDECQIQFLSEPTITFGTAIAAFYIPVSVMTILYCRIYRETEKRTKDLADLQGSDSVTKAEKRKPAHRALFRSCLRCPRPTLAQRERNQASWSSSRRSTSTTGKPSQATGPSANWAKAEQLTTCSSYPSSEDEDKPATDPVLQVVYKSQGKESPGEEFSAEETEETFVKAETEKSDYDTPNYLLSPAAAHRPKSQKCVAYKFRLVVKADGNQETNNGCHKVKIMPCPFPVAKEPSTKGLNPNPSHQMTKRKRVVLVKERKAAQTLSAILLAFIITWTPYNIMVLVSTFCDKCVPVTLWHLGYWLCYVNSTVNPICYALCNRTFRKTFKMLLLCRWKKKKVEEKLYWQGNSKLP
It counts as cell membranes, CHO-K1, Membrane.

Broadly, the IC50 is the concentration at which inhibition is half-maximal. As a reminder, the Ki is a dissociation constant, usually derived from enzyme kinetics or from competition with a known ligand.

Chain of Matrix metalloproteinase-9 (P14780 whole entry): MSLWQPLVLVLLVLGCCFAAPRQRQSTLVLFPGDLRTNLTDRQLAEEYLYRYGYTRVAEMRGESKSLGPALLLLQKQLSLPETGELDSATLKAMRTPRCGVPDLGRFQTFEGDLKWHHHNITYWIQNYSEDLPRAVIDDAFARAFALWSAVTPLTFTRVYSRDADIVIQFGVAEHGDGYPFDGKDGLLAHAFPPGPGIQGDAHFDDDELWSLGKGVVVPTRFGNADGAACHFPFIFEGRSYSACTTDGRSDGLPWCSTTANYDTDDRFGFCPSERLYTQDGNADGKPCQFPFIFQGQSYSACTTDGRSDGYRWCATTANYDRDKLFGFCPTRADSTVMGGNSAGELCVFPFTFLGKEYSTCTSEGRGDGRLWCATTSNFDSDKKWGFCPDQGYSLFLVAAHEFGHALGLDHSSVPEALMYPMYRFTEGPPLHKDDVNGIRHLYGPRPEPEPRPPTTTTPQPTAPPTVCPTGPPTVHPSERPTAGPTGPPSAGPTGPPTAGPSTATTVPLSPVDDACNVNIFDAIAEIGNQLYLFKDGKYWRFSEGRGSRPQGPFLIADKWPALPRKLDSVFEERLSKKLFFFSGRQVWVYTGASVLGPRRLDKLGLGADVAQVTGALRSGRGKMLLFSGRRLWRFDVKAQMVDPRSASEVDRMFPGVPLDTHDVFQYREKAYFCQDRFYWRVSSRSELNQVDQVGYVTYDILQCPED

As to `COc1ccc(CCN(C)CCCC(C#N)(c2ccc(OC)c(OC)c2)C(C)C)cc1OC` (configuration not stated), the half-inhibitory concentration (IC50) result (in assay [1]; at D(4) dopamine receptor; on Substance-K receptor (cho); at Thromboxane-A synthase; in assay [2]; in assay [3] (cho-k1)) was “Not Active” in each case.
For `CC(C)Cc1ccc([C@@H](C)C(=O)O)cc1` [(R)-IBUPROPHEN], the IC50 result (in assay [1]; at D(4) dopamine receptor; against Substance-K receptor (cho); against Thromboxane-A synthase; in assay [2]; in assay [3] (cho-k1)) was “Not Active” in each case.
In the case of `CC(C)NCC(O)c1ccc(O)c(O)c1` (configuration not stated) [ISOPROTERENOL], the 50% inhibitory concentration (IC50) result (in assay [1]; on D(4) dopamine receptor; at Substance-K receptor (cho); at Thromboxane-A synthase; in assay [2]; in assay [3] (cho-k1)) was “Not Active” throughout.
Turning to `NC(=O)N1C(=O)/C(=C(\O)c2cccs2)c2cc(Cl)ccc21` [TENIDAP], the IC50 entry (in assay [1]; on D(4) dopamine receptor; on Substance-K receptor (cho); against Thromboxane-A synthase; in assay [2]; in assay [3] (cho-k1)) was “Not Active” throughout.
Consider `NC1CCN(c2nc3c(cc2F)c(=O)c(C(=O)O)cn3-c2ccc(F)cc2F)C1` (configuration not stated) [TOSUFLOXACIN], for which the IC50 result (in assay [1]; on D(4) dopamine receptor; on Substance-K receptor (cho); against Thromboxane-A synthase; in assay [2]; in assay [3] (cho-k1)) was “Not Active” each time.
For the compound `N#Cc1ccc(C(c2ccc(C#N)cc2)n2cncn2)cc1` [LETROZOLE], the IC50 entry (in assay [1]; on D(4) dopamine receptor; against Substance-K receptor (cho); at Thromboxane-A synthase; in assay [2]; in assay [3] (cho-k1)) was “Not Active” each time.
On to `O=C(Nc1ccc(Br)cc1)c1cc(Br)cc(Br)c1O` [TRIBROMSALAN], for which the 50% inhibitory concentration (IC50) entry (in assay [1]; on D(4) dopamine receptor; against Substance-K receptor (cho); against Thromboxane-A synthase; in assay [2]; in assay [3] (cho-k1)) was “Not Active” in each case.
Take `O=C1Nc2ccc(Cl)cc2C(c2ccccc2Cl)=NC1O` (configuration not stated) [LORAZEPAM]: the half-maximal inhibitory concentration (IC50) entry (in assay [1]; on D(4) dopamine receptor; on Substance-K receptor (cho); on Thromboxane-A synthase; in assay [2]; in assay [3] (cho-k1)) was “Not Active” throughout.
For `CC(C)Oc1ccc2c(=O)c(-c3ccccc3)coc2c1` [IPRIFLAVONE], the IC50 entry (in assay [1]; on D(4) dopamine receptor; at Substance-K receptor (cho); on Thromboxane-A synthase; in assay [2]; in assay [3] (cho-k1)) was “Not Active” each time.
As for `CNC1(c2ccccc2Cl)CCCCC1=O` (configuration not stated) [KETAMINE], the IC50 entry (in assay [1]; on D(4) dopamine receptor; against Substance-K receptor (cho); against Thromboxane-A synthase; in assay [2]; in assay [3] (cho-k1)) was “Not Active” throughout.
Consider `O=C(O)c1cn(-c2ccc(F)cc2)c2cc(N3CCNCC3)c(F)cc2c1=O` [SARAFLOXACIN], for which the half-inhibitory concentration (IC50) result (in assay [1]; on D(4) dopamine receptor; on Substance-K receptor (cho); against Thromboxane-A synthase; in assay [2]; in assay [3] (cho-k1)) was “Not Active” each time.
Regarding `CCN(CC)CCOc1ccc(/C(=C(/Cl)c2ccccc2)c2ccccc2)cc1` [ENCLOMIPHENE], the half-maximal inhibitory concentration (IC50) result in assay [1] was “Not Active”; at D(4) dopamine receptor, “Not Active”; on Substance-K receptor (read-out: IC50), 4520 nM; against Thromboxane-A synthase, “Not Active”; in assay [2], “Not Active”; in assay [3] (read-out: IC50) it was 1770 nM. Also, the Ki on Substance-K receptor (read-out: Ki) is 1510 nM; in assay [3] (read-out: Ki) it was 1270 nM.
Take SODIUM ORTHOVANAD: the IC50 entry (in assay [1]; at D(4) dopamine receptor; against Substance-K receptor (cho); against Thromboxane-A synthase; in assay [2]; in assay [3] (cho-k1)) was “Not Active” in each case. Further, the Ki result (in assay [1]; on D(4) dopamine receptor; on Substance-K receptor (cho); at Thromboxane-A synthase; in assay [2]; in assay [3] (cho-k1)) was “Not Active” throughout.
`Cn1c(=O)c2nc[nH]c2n(C)c1=O.O` [THEOPHYLLINE]: the IC50 entry (in assay [1]; on D(4) dopamine receptor; at Substance-K receptor (cho); against Thromboxane-A synthase; in assay [2]; in assay [3] (cho-k1)) was “Not Active” in each case.
Turning to `CO[C@@H]1[C@@H](OC)[C@H](C)[C@@](O)(CC(=O)O)O[C@H]1[C@H](C)[C@H]1O[C@@]2(CC[C@@](C)([C@H]3CC[C@@](C)([C@@H]4O[C@@H]([C@H]5O[C@](C)(O)[C@H](C)C[C@@H]5C)C[C@@H]4O[C@@H]4C[C@H](OC)[C@@H](OC)[C@H](C)O4)O3)O2)C[C@H](O)[C@H]1C` [MADURAMICIN ACID], the IC50 entry (in assay [1]; on D(4) dopamine receptor; at Substance-K receptor (cho); on Thromboxane-A synthase; in assay [2]; in assay [3] (cho-k1)) was “Not Active” in each case.
For `CN[C@H]1CC[C@@H](c2ccc(Cl)c(Cl)c2)c2ccccc21` [SERTRALINE], the IC50 entry in assay [1] is “Not Active”; at D(4) dopamine receptor, “Not Active”; on Substance-K receptor (cho), “Not Active”; at Thromboxane-A synthase, “Not Active”; in assay [2], “Not Active”; in assay [3] (read-out: IC50), 507 nM. Moreover, in assay [3] (read-out: Ki), the inhibition constant Ki came out at 365 nM.
Turning to `CCN(CC)CC(=O)Nc1c(C)cccc1C` [LIDOCAINE], the IC50 result (in assay [1]; at D(4) dopamine receptor; at Substance-K receptor (cho); against Thromboxane-A synthase; in assay [2]; in assay [3] (cho-k1)) was “Not Active” in each case.
With `CN(C)CCOC(c1ccccc1)c1ccccc1` [DIPHENHYDRAMINE], the half-maximal inhibitory concentration (IC50) result (in assay [1]; on D(4) dopamine receptor; against Substance-K receptor (cho); against Thromboxane-A synthase; in assay [2]) was “Not Active” throughout.
With `CN(C/C=C/C#CC(C)(C)C)Cc1cccc2ccccc12` [TERBINAFINE], the IC50 result (in assay [1]; on D(4) dopamine receptor; against Substance-K receptor (cho); at Thromboxane-A synthase; in assay [2]; in assay [3] (cho-k1)) was “Not Active” in each case.
In the case of `Fc1ccc(C(c2ccc(F)cc2)N2CCN(C/C=C/c3ccccc3)CC2)cc1` [FLUNARIZINE], the IC50 result (in assay [1]; at D(4) dopamine receptor; against Substance-K receptor (cho); on Thromboxane-A synthase; in assay [2]) was “Not Active” each time.
For `CNCCC(Oc1ccc(C(F)(F)F)cc1)c1ccccc1` (configuration not stated) [FLUOXETINE], the half-inhibitory concentration (IC50) result (in assay [1]; on D(4) dopamine receptor; against Substance-K receptor (cho); against Thromboxane-A synthase; in assay [2]) was “Not Active” each time.
